Source: patent US10508098B2, “Quinazolinones and azaquinazolinones as ubiquitin-specific protease 7 inhibitors” (FORMA Therapeutics, Inc., priority 2015, dated 2019)

Target: USP7 (Homo sapiens (Human), UniProt Q93009)
Assay: USP7 Assays A and B (Ubiquitin-Rhodamine 110 assay)
Type: biochemical
Conditions: USP7 (208-1102) 6*His; substrate Ub-Rh110 25 nM; assays A and B not distinguished
Experimental: Example 9: USP7 Assay A (Ubitquin-Rhodamine 110 Assay)
Each assay was performed in a final volume of 15 μL in assay buffer containing 20 mM Tris-HCl (pH 8.0, (1M Tris-HCl, pH 8.0 solution; Corning 46-031-CM)), 1 mM GSH (L-Glutathione reduced; Sigma #G4251), 0.03% BGG (0.22 μM filtered, Sigma, #G7516-25G), and 0.01% Triton X-100 (Sigma, #T9284-10L). Nanoliter quantities of either an 8-point or 10-point, 3-fold serial dilution in DMSO was pre-dispensed into assay plates (Perkin Elmer, ProxiPlate-384 F Plus, #6008269) for a final test concentration range of either 25 μM to 11 nM or 25 μM to 1.3 nM, respectively. The final concentration of the enzyme (USP7, construct USP7 (208-1102) 6*His, Viva Biotech) in the assay was 62.5 pM. Final substrate (Ub-Rh110; Ubiquitin-Rhodamine 110, R&D Systems #U-555) concentration was 25 nM with [Ub-Rh110]<<Km. 5 μL of 2× enzyme was added to assay plates (pre-stamped with compound) preincubated with USP7 for 30 min and then 5 μL of 2×Ub-Rh110 was added to assay plates. Plates were incubated stacked for 20 min at room temperature before 5 μL of stop solution (final concentration of 10 mM citric acid in assay buffer (Sigma, #251275-500G)). Fluorescence was read on the Envision (Excitation at 485 nm and Emission at 535 nm; Perkin Elmer) or on the PheraSTAR (Excitation at 485 nm and Emission at 535 nm; BMG Labtech).
Example 10: USP7 Assay B (Ubitquin-Rhodamine 110 Assay)
Each assay was performed in a final volume of 20 μL in assay buffer containing 20 mM Tris-HCl (pH 8.0, (1M Tris-HCl, pH 8.0 solution; Corning 46-031-CM)), 2 mM CaCl2 (1M Calcium Chloride solution; Sigma #21114) 1 mM GSH (L-Glutathione reduced; Sigma #G4251), 0.01% Prionex (0.22 μM filtered, Sigma #G-0411), and 0.01% Triton X-100. Stock compound solutions were stored at −20° C. as 10 mM in DMSO. Up to 1 month prior to the assay, 2 mM test compounds were pre-dispensed into assay plates (Black, low volume; Corning #3820) and frozen at −20° C. Prestamped assay plates were allowed to come to room temperature on the day of the assay. For the screen, 100 nL of 2 mM was pre-dispensed for a final screening concentration of 10 μM (DMSO(fc)=0.5%). For follow-up studies, 250 nL of an 8-point, 3-fold serial dilution in DMSO was pre-dispensed into assay plates for a final test concentration of 25 μM-11 nM (1.25% DMSO final concentration). Unless otherwise indicated, all follow-up assays were run on triplecate plates. Enzyme (USP7, construct Met (208-1102)-TEV-6*His; Viva Q93009-1) concentration and incubation times were optimized for the maximal signal-to-background while maintaining initial velocity conditions at a fixed substrate concentration. The final concentration of the enzyme in the assay was either 75 pM or 250 pM. Final substrate (Ub-Rh110; Ubiquitin-Rhodamine 110, R&D Systems (biotechne)#U-555) concentration was 25 nM with [Ub-Rh110]<<Km. Pre-stamped with compounds were either not preincubated or preincubated with USP7 between 30 to 120 min prior to the addition of 10 μL of 2×Ub-Rh110 to compound plates. Plates were incubated stacked for either 23 or 45 min at room temperature before fluorescence was read on the Envision (Excitation at 485 nm and Emission at 535 nm; Perkin Elmer) or on the PheraSTAR (Excitation at 485 nm and Emission at 535 nm; BMG Labtech).
Data from USP7 Assays A and B were reported as percent inhibition (inh) compared with control wells based on the following equation: % inh=1−((FLU−AveLow)/(AveHigh−AveLow)) where FLU=measured Fluorescence. AveLow=average Fluorescence of no enzyme control (n=16). AveHigh=average Fluorescence of DMSO control (n=16). IC50 values were determined by curve fitting of the standard 4 parameter logistic fitting algorithm included in the Activity Base software package: IDBS XE Designer Model205. Data is fitted using the Levenburg Marquardt algorithm.

Chain of USP7 (Q93009 208-1102): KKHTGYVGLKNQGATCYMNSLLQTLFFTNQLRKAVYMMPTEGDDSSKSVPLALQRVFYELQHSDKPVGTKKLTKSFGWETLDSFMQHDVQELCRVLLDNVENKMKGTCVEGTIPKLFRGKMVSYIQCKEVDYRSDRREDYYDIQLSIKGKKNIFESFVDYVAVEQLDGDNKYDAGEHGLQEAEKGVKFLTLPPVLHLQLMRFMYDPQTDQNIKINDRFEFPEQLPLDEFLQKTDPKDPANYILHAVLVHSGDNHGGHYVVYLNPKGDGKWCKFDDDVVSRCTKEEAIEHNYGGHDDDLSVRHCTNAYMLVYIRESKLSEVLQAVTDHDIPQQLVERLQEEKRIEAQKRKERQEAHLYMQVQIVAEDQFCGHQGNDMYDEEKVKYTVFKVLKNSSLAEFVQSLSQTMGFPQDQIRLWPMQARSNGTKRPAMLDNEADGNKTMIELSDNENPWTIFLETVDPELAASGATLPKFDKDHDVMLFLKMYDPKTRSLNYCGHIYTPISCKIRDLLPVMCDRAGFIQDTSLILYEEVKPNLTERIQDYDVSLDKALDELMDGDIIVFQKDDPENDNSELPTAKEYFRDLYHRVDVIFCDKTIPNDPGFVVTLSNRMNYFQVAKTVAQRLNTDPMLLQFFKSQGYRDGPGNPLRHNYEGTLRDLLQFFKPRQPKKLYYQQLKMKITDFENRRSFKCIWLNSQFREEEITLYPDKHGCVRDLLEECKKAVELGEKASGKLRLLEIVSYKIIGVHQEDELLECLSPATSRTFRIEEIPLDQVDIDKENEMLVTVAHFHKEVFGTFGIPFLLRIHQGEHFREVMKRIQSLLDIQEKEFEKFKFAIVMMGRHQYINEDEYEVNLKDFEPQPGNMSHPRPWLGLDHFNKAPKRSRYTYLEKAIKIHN

Row | SMILES | IC50 [µM]
1 | COc1ccc2c(=O)n(CC3(O)CCN(C(=O)CC(C)c4ccccc4)CC3)cnc2c1 (stereo not shown) [Compound I-1, 3-((4-hydroxy-1-(3-phenylbutanoyl)piperidin-4-yl)methyl)-7-methoxyquinazolin-4(3H)-one] | < 0.2
2 | Cc1cccc2c(=O)n(CC3(O)CCN(C(=O)CC(C)c4ccccc4)CC3)cnc12 (stereo not shown) [Compound I-2, 3-((4-hydroxy-1-(3-phenylbutanoyl)piperidin-4-yl)methyl)-8-methylquinazolin-4(3H)-one] | < 0.2
3 | CC(CC(=O)N1CCC(O)(Cn2cnc3cc(N)ccc3c2=O)CC1)c1ccccc1 (stereo not shown) [Compound I-3, 7-amino-3-((4-hydroxy-1-(3-phenylbutanoyl)piperidin-4-yl)methyl)quinazolin-4(3H)-one] | < 0.2
4 | CC(=O)Nc1ccc2c(=O)n(CC3(O)CCN(C(=O)CC(C)c4ccccc4)CC3)cnc2c1 (stereo not shown) [Compound I-4, N-(3-((4-hydroxy-1-(3-phenylbutanoyl)piperidin-4-yl)methyl)-4-oxo-3,4-dihydroquinazolin-7-yl)acetamide] | < 0.2
5 | COc1ccc2c(=O)n(CC3(O)CCN(C(=O)C[C@@H](C)c4ccccc4)CC3)cnc2c1 [Compound I-5, (R)-3-((4-hydroxy-1-(3-phenylbutanoyl)piperidin-4-yl)methyl)-7-methoxyquinazolin-4(3H)-one] | < 0.2
6 | Cc1cccc2c(=O)n(CC3(O)CCN(C(=O)C[C@@H](C)c4ccccc4)CC3)cnc12 [Compound I-6, (R)-3-((4-hydroxy-1-(3-phenylbutanoyl)piperidin-4-yl)methyl)-8-methylquinazolin-4(3H)-one] | < 0.2
7 | Cc1ccc2c(=O)n(CC3(O)CCN(C(=O)c4ccc5c(c4)CCN5Cc4ccccc4)CC3)cnc2c1 [Compound I-7, 3-((1-(1-benzylindoline-5-carbonyl)-4-hydroxypiperidin-4-yl)methyl)-7-methylquinazolin-4(3H)-one] | 1 to 10
8 | O=C(c1ccccc1)N1CCC(O)(Cn2cnc3cc(-c4ccccc4)ccc3c2=O)CC1 [Compound I-8, 3-((1-benzoyl-4-hydroxypiperidin-4-yl)methyl)-7-phenylquinazolin-4(3H)-one] | > 10
9 | O=C(c1ccccc1)N1CCC(O)(Cn2cnc3c(-c4ccccc4)cccc3c2=O)CC1 [Compound I-9, 3-((1-benzoyl-4-hydroxypiperidin-4-yl)methyl)-8-phenylquinazolin-4(3H)-one] | 1 to 10
10 | O=C(c1ccc(F)cc1)N1CCC(O)(Cn2cnc3c(Oc4ccc(F)cc4)cccc3c2=O)CC1 [Compound I-10, 3-((1-(4-fluorobenzoyl)-4-hydroxypiperidin-4-yl)methyl)-8-(4-fluorophenoxy)quinazolin-4(3H)-one] | 1 to 10
11 | CC(CC(=O)N1CCC(O)(Cn2cnc3ncccc3c2=O)CC1)c1ccccc1 (stereo not shown) [Compound I-11, 3-((4-hydroxy-1-(3-phenylbutanoyl)piperidin-4-yl)methyl)pyrido[2,3-d]pyrimidin-4(3H)-one] | > 10
12 | CC(CC(=O)N1CCC(O)(Cn2cnc3cnccc3c2=O)CC1)c1ccccc1 (stereo not shown) [Compound I-12, 3-((4-hydroxy-1-(3-phenylbutanoyl)piperidin-4-yl)methyl)pyrido[3,4-d]pyrimidin-4(3H)-one] | 1 to 10
13 | CC(CC(=O)N1CCC(O)(Cn2cnc3cccnc3c2=O)CC1)c1ccccc1 (stereo not shown) [Compound I-13, 3-((4-hydroxy-1-(3-phenylbutanoyl)piperidin-4-yl)methyl)pyrido[3,2-d]pyrimidin-4(3H)-one] | 0.2 to 1
